Test results reported in patent US7579018B2, “Microbiological control in aqueous systems” (Albemarle Corporation, priority 2000, dated 2009).
Values belong to the compound of their own block, whether it stands above or below them.

How the values were obtained:
[1] = Iodometric titration of clear saturated stock solutions; assay type: physicochemical; details: 1 gram powder slurried in 100 mL deionized water, stirred 20 minutes, filtered
Protocol: Stock solutions of DBDMH and of BCDMH were prepared by slurrying 1 gram of the respective powders in 100 mL of deionized water. After stirring for 20 minutes, the insolubles were filtered to yield clear saturated stock solutions of DBDMH and BCDMH, respectively. Iodometric titration of the stock solutions using the potassium iodide-sodium thiosulfate method indicated the DBDMH solution contained 580 mg/L (as total chlorine), and the BCDMH solution contained 1100 mg/L (as total chlorine).

heterotrophic bacteria = assay: Cooling tower field trial, Example 2: heterotrophic bacteria plate counts
Source text: The effectiveness of DBDMH and of BCDMH in microbiological control in cooling tower water was investigated in comparative tests. The cooling tower consisted of two 500-ton units in a crossflow design. The total system-contained volume was 14,000 gallons, and the tower contained medium efficiency film fill. Water from the tower cooled the coils of two 300-ton air conditioners (chillers). The tower typically operated at a pH of about 9.1 and 4 cycles of concentration. Blowdown was controlled by conductivity. Make-up water consisted of softened city water and which was of good quality. The make-up water was very low in calcium (<10 mg/L) but high in pH (8.7). The alkalinity was 145 mg/L (as CaCO3), and the silica level was 28 mg/L. The tower employed a conventional polyphosphate/molybdate/phosphonate program to provide corrosion and deposit control.
The BCDMH (20 lbs) was introduced to the water using 20-gram, 1-inch tablets charged to a solid halogen feeder (Neptune model BT-40, Neptune Chemical Pump Co., Inc., Lansdale, Pa.). Before each dose, the cooling tower water was sampled and enumerated for heterotrophic bacteria plate counts. Then the tower was slug dosed three times a week with BCDMH. Slug dosing was accomplished by diverting through the feeder containing the tablets a sidestream of the recirculating water for about 1 to 5 hours until a “free chlorine” dose of about 0.5 mg/L (as “free chlorine”) was obtained. The “total chlorine” dose was measured at the same time. After each dose the cooling water was sampled and enumerated for heterotrophic bacteria plate counts. As necessary, the feeder was replenished with more BCDMH tablets.
For example, before the biocide dose the bacteria levels in the bulk water ranged from 10^5 to 10^4 CFUs/mL. After the biocide dose the bacteria levels in the bulk water were reduced to 10^4 to 10^3.
After emptying the feeder of BCDMH tablets, 20 lbs of DBDMH granules was charged into the feeder. Thereupon the same procedure as described above for the BCDMH was carried out except for the fact that is was unnecessary to add any additional DBDMH to the feeder during the 30-day test period. In fact, the total weight of DBDMH consumed during the test was only 7 lbs.

[2] = “free chlorine” (Hach Method 8021) and “total chlorine” (Hach Method 8167) in dosed simulated cooling water, Example 1; assay type: physicochemical; details: simulated cooling water pH 9.1, 38° C.
Source text: The standard tests for determination of “free chlorine” and “total chlorine” are based on classical test procedures devised by Palin in 1974. See A. T. Palin, “Analytical Control of Water Disinfection With Special Reference to Differential DPD Methods For Chlorine, Chlorine Dioxide, Bromine, Iodine and Ozone”, J. Inst. Water Eng., 1974, 28, 139. While there are various modernized versions of the Palin procedures, the version of the tests for “free chlorine” and “total chlorine” used and to be used as the standard in connection with this invention, are fully described in Hach Water Analysis Handbook, 3rd edition, copyright 1997. The procedure for “free chlorine” is identified in that publication as Method 8021 appearing on page 335, whereas the procedure for “total chlorine” is Method 8167 appearing at page 379. Briefly, the “free chlorine” test involves introducing to the halogenated water a powder comprising DPD indicator powder and a buffer. “Free chlorine” present in the water reacts with the DPD indicator to produce a red to pink coloration. The intensity of the coloration depends upon the concentration of “free chlorine” species present in the sample. This intensity is measured by a calorimeter calibrated to transform the intensity reading into a “free chlorine” value in terms of mg/L Cl2. Similarly, the “total chlorine” test also involves use of DPD indicator and buffer. In this case, KI is present with the DPD and buffer whereby the halogen species present, including nitrogen-combined halogen, reacts with KI to yield iodine species which turn the DPD indicator to red/pink. The intensity of this coloration depends upon the sum of the “free chlorine” species and all other halogen species present in the sample. Consequently, this coloration is transformed by the colorimeter into a “total chlorine” value expressed as mg/L Cl2.
DBDAH and BCDMH Test Procedure • 1. To determine the amount of species present in the water which respond to the “free chlorine” and “total chlorine” tests, the water sample should be analyzed within a few minutes of being taken, and preferably immediately upon being taken. • 2. Hach Method 8021 for testing the amount of species present in the water sample which respond to the “free chlorine” test involves use of the Hach Model DR 2010 calorimeter. The stored program number for chlorine determinations is recalled by keying in “80” on the keyboard, followed by setting the absorbance wavelength to 530 nm by rotating the dial on the side of the instrument. Two identical sample cells are filled to the 10 mL mark with the water under investigation. One of the cells is arbitrarily chosen to be the blank. Using the 10 mL cell riser, this is admitted to the sample compartment of the Hach Model DR 2010, and the shield is closed to prevent stray light effects. Then the ZERO key is depressed. After a few seconds, the display registers 0.00 mg/L Cl2. To second cell, the contents of a DPD Free Chlorine Powder Pillow are added. This is shaken for 10-20 seconds to mix, as the development of a pink-red color indicates the presence of species in the water which respond positively to the DPD test reagent. Within one minute of adding the DPD “free chlorine” reagent to the 10 mL of water in the sample cell, the blank cell used to zero the instrument is removed from the cell compartment of the Hach Model DR 2010 and replaced with the test sample to which the DPD “free chlorine” test reagent was added. The light shield is then closed as was done for the blank, and the READ key is depressed. The result, in mg/L Cl2 is shown on the display within a few seconds. This is the “free chlorine” level of the water sample under investigation. • 3. Hach Method 8167 for testing the amount of species present in the water sample which respond to the “total chlorine” test involves use of the Hach Model DR 2010 calorimeter. […]

[3] = Storage of tablets at 50° C. for 30 days, titration of active bromine, Example 24; assay type: physicochemical
Source text: 1,3-Dibromo-5,5-dimethylhydantoin was blended with micronized polyethylene wax (MPP-611) such that the blend contained 3 wt % of the wax. A sample of the blend (5 g) was introduced to a die made from Hastelloy® C alloy, and compacted to a pressure of 5000 psi. Three more samples (5 g each) were compacted in the same manner, and each time a single tablet was extracted from the die after the pressure had been released. In each case, before filling the die, its interior surfaces were lightly dusted with micronized polypropylene wax to serve as a lubricant. The tablets were manually broken into two equally-sized pieces. One half of each tablet was crushed into a powder with a mortar and pestle, and the powder was titrated to determine its wt % of active bromine. The other half of each tablet was placed in a sealed glass vial and placed in an oven at 50° C. After 30 days, the samples were removed from the oven, ground up, and titrated to determine its wt % of active bromine. For comparative purposes, a control sample of commercially produced 1,3-dibromo-5,5-dimethylhydantoin having an average particle size of about 64.5μ (containing no micronized polyethylene wax) was subjected to the same operations.
Table 16 lists the results obtained for four samples of 1,3-dibromo-5,5-dimethylhydantoin/3 wt % micronized polyethylene wax blends, along with the control sample containing no additive.

[4] = dosed to 1 mg/L as total chlorine, Time 0 hr
[5] = Time 0.5 hr, percentage of Time 0 value
[6] = Time 1 hr, percentage of Time 0 value
[7] = Time 1.5 hr, percentage of Time 0 value
[8] = Time 2 hr, percentage of Time 0 value
[9] = Time 3 hr, percentage of Time 0 value
[10] = Time 4 hr, percentage of Time 0 value
[11] = Time 5 hr, percentage of Time 0 value
[12] = Time 6 hr, percentage of Time 0 value

Structure (SMILES): CC1(C)C(=O)N(Cl)C(=O)N1Br [BCDMH, N,N′-bromochloro-5,5-dimethylhydantoin, reference compound]
- halogen content of saturated stock solution (as total chlorine) [1]: 1100 mg/L
- average reduction of heterotrophic bacterial levels in the bulk water (heterotrophic bacteria; biocide dose 0.5 mg/L “free chlorine”): 1 order of magnitude
- bacteria levels in the bulk water after the biocide dose (heterotrophic bacteria; biocide dose 0.5 mg/L “free chlorine”, before dose 10^5 to 10^4 CFUs/mL): 10^4 to 10^3 CFUs/mL
- Bacteria reduction (heterotrophic bacteria; slug dose 3 times/week, 0.5 ppm free Cl2, cooling tower water): 1.5-2 logs
- Free Cl2 [2, 4]: 23.1
- Total Cl2 [2, 4]: 100
- % hydrolysis to Free Cl2 ([2]; Time 0 hr): 23.1%
- % hydrolysis to Free Cl2 ([2]; Time 0.5 hr): 24.7%
- Free Cl2 [2, 5]: 25.6%
- Total Cl2 [2, 5]: 104%
- % hydrolysis to Free Cl2 ([2]; Time 1 hr): 23.1%
- Free Cl2 [2, 6]: 23.1%
- Total Cl2 [2, 6]: 100%
- % hydrolysis to Free Cl2 ([2]; Time 1.5 hr): 19.4%
- Free Cl2 [2, 7]: 17.9%
- Total Cl2 [2, 7]: 92.3%
- % hydrolysis to Free Cl2 ([2]; Time 2 hr): 18.8%
- Free Cl2 [2, 8]: 16.6%
- Total Cl2 [2, 8]: 88.5%
- % hydrolysis to Free Cl2 ([2]; Time 3 hr): 18.8%
- Free Cl2 [2, 9]: 16.6%
- Total Cl2 [2, 9]: 88.5%
- % hydrolysis to Free Cl2 ([2]; Time 4 hr): 38.7%
- Free Cl2 [2, 10]: 30.7%
- Total Cl2 [2, 10]: 79.5%
- % hydrolysis to Free Cl2 ([2]; Time 5 hr): 20%
- Free Cl2 [2, 11]: 15.4%
- Total Cl2 [2, 11]: 76.9%
- % hydrolysis to Free Cl2 ([2]; Time 6 hr): 14.3%
- Free Cl2 [2, 12]: 10.2%
- Total Cl2 [2, 12]: 71%

- Wt % Active Bromine, After 30 days ([3]; sealed glass vial in oven at 50° C., 30 days): 55.2 Wt %
- Wt % Active Bromine, Initial ([3]; tablet half crushed and titrated before storage): 55.3 Wt %
Structure (SMILES): CC1(C)C(=O)N(Br)C(=O)N1Br [Control, 1,3-dibromo-5,5-dimethylhydantoin]
